According to patent US10383859B2, “Benzo[d]thiazole derivative or salt thereof, and pharmaceutical composition including same” (Yuhan Corporation, priority 2016, dated 2019):

System: A549 cells
Test: Cell migration assay (24-well transwell, laminin)
Type: cell-based, human
Details: Homo sapiens, A549, 6 h, laminin 10 μg/mL in lower well, test compounds 0.39˜100 μM, migrated cells counted, read-out: Inhibitory activity against cell migration
Summary of the method: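 Serum-free RPMI1640 transwell (8.0 μm pore) with laminin (10 μg/mL) in lower well; A549 cells (1×10^6 cells/mL) and compounds (0.39–100 μM) in both chambers, 6 h at 37 °C. Hematoxylin-stained cells on membrane underside counted at three fields (×20); IC50 by non-linear regression.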

Row | IC50 | Structure (SMILES)
1 | < 1 µM | COc1ccc(CCN(c2nc3cc(C(F)(F)F)ccc3s2)C(C)c2ccc(C(=O)O)cc2)cc1 (stereo not drawn) [Example 124, 4-(1-{[2-(4-methoxyphenyl)ethyl][5-(trifluoromethyl)benzo[d]thiazol-2-yl]amino}ethyl)benzoic acid]
2 | > 10 µM | COc1ccc(CCN(Cc2ccc(C(=O)O)cc2)c2nc3ccc(C(F)(F)F)cc3s2)cc1 [Example 119, 4-({[2-(4-methoxyphenyl)ethyl][6-(trifluoromethyl)benzo[d]thiazol-2-yl]amino}methyl)benzoic acid]
3 | < 1 µM | COc1ccc(CCN(Cc2ccc(C(=O)O)cc2)c2nc3cc(F)c(F)c(F)c3s2)cc1 [Example 87, 4-{[[2-(4-methoxyphenyl)ethyl](5,6,7-trifluorobenzo[d]thiazol-2-yl)amino]methyl}benzoic acid]
